According to patent US5476944A, “Derivatives of cyclic phenolic thioethers” (G. D. Searle & Co., priority 1994, dated 1995):

Target: T1, COX-II (Homo sapiens, UniProt P35354)
T1 construct: made in house; host or cells: SF9 insect cells, recombinant baculovirus (pVL1393); coding fragment from Cayman Chemical
T1 sequence (P35354 18-604): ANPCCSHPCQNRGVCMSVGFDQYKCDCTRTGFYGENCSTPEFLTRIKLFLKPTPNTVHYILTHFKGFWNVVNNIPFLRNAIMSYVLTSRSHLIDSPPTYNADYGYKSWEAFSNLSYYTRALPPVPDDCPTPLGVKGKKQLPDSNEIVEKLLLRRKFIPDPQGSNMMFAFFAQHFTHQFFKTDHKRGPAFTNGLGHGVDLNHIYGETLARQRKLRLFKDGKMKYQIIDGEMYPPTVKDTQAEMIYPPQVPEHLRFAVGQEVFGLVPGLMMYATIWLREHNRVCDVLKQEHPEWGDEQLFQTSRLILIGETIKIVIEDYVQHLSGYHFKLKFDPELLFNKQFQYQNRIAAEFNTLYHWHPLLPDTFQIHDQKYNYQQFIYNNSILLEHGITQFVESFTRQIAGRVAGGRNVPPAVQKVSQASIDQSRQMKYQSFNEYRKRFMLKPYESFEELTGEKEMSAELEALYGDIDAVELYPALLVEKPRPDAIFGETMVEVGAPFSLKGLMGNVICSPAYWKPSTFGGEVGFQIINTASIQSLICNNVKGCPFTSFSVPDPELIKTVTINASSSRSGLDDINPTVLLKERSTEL
Assay: Human Enzyme Assay, recombinant COX-II (PGE2 ELISA)
Assay type: biochemical
Protocol: The compounds of the invention are evaluated with respect to COX-I and COX-II activity in vitro using an enzyme based assay according to the following assay procedure.
(a) Preparation of Recombinant COX Baculoviruses
A 2.0 kb fragment containing the coding region for either human or murine COX-I (Caymen Chemical, Ann Arbor, Mich.), or human or murine COX-II (Caymen Chemical, Ann Arbor, Mich.), was cloned into a BamH1 site of the baculovirus transfer vector pVL1393 (Invitrogen, Palo Alto, Calif.) to generate a baculovirus transfer vector. Recombinant baculoviruses were isolated by transfecting 4 μg of baculovirus transfer vector DNA into SF9 cells (2×10e8) (Invitrogen, Palo Alto, Calif.) along with 200 ng of linearized bacium by the phosphate method. See M. D. Summers et al., "A Manual of Methods for Baculovirus Vectors and Insect Cell Culture Procedure," TEXAS AGRICULTURE EXPERIMENTAL STATION BULLETIN, No. 1555 (1987), which is incorporated herein by reference. Recombinant viruses were purified by three rounds of plaque purification, and high titer (10e7-10e8 pfu/ml) stocks of virus were prepared. For large scale production, SF9 insect cells (Invitrogen, Palo Alto, Calif.) were infected in 10 liter fermentors (0.5×10^6 /ml) with the recombinant baculovirus stock, such that the multiplicity of infection was 0.1. After 72 hours, the cells were centrifuged and the cell pellet was homogenized in Tris/Sucrose (50 mM: 25%, pH 8.0) containing 1% CHAPS. The homogenate was centrifuged at 10,000×G for 30 minutes, and the resultant supernatant was stored at -80° C. before being assayed for COX activity.
b. Assay for COX-I and COX-II activity:
COX activity was assayed as PGE2 formed/μg protein/time using an ELISA (Caymen Chemical, Ann Arbor, Mich.) to detect the prostaglandin E2 released. CHAPS-solubilized insect cell membranes containing the appropriate COX enzyme were incubated in a potassium phosphate buffer (50 mM, pH 8.0) containing phenol (0.5 mM), and heme (1 μM) with the addition of arachidonic acid (10 μM). Compounds of the present invention were pre-incubated with the enzyme for 10-20 minutes prior to the addition of the COX-I and COX-II enzyme substrate arachidonic acid (10 μM). Any reaction between the arachidonic acid and the enzyme was stopped after ten minutes at 37° C./room temperature by transferring 40 μl of reaction mix into […] ELISA buffer and 25 μM indomethacin. The PGE2 formed was measured by standard ELISA technology (Cayman Chemical, Ann Arbor, Mich.).
The results for this assay, as well as for the next assay (COX-II Cell Fibroblast Assay) are expressed in terms of COX-I or II activity as an IC50 value (50% inhibitory concentration), as defined as the amount of prostaglandin E2 (PGE2) formed per protein per time in response to the enzyme substrate arachidonic acid.

- IC50: 4.11 µM
Compound: CC(C)(C)c1cc(S[C@H]2CCCC[C@H]2OCC(=O)O)cc(C(C)(C)C)c1 (racemic) [Example 72, (±)cis-2-[[2-[[3,5-bis(1,1-dimethylethyl)phenyl]thio]cyclohexyl]oxy]acetic acid]
